Data: patent US20080207900A1, “TWO CYCLIC OXOMORPHORIN DERIVATIVES” (priority 2007, published 2008)

Test system: Aβ42 production
Test: Quantitation of Aβ peptide in neuronal cell culture derived from a rat fetal brain (Aβ ELISA)
Type: cell-based
Details: rat primary neuronal cell culture (cerebral cortex, 18-day embryos); medium recovered 3 days after adding the compound; Aβx-42 ELISA; test concentration not given
From the text: Quantitation of Aβ Peptide in Neuronal Cell Culture Derived from a Rat Fetal Brain.
The cerebral cortex was isolated from 18-day embryos of Wister rats (Charles River Japan, Yokohama, Japan) and cultured. More specifically, under ether anesthesia, embryos were aseptically resected from pregnant rats. The brains were resected from the embryos and placed in an ice cold L-15 medium (Invitrogen Corp. Cat. #11415-064, Carlsbad, Calif., USA or SIGMA L15181 and the like). From the resected brains, the cerebral cortex was collected under a stereoscopic microscope. The collected pieces of the cerebral cortex were treated in an enzyme solution containing 0.25% trypsin (Invitrogen Corp. Cat. #15050-065, Carlsbad, Calif. USA) and 0.01% DNase (Sigma D5025, St. Louis, Mo., USA) at 37° C. for 30 minutes to disperse cells. Then, the enzyme reaction was stopped by adding inactivated horse serum. The resultant enzyme treatment solution was centrifuged at 1500 rpm for 5 minutes to remove the supernatant. A medium (5-10 ml) was added to the obtained cell aggregates. The medium used was Neurobasal medium (Invitrogen Corp. Cat. #21103-049, Carlsbad, Calif., USA) added with 2% B27 supplement (Invitrogen Corp. Cat #17504-044, Carlsbad, Calif. USA), 25 μM 2-mercaptoethanol (2-ME, WAKO Cat. #139-06861, Osaka, Japan), 0.5 mM L-glutamine (Invitrogen Corp. Cat. #25030-081, Carlsbad, Calif., USA) and Antibiotics-Antimycotics (Invitrogen Corp. Cat. #15240-062, Carlsbad, Calif., USA) (Neurobasal/B27/2-ME). However, a media without 2-ME (Neurobasal/B27) was used when an assay was carried out. The cell aggregates mixed with the medium were pipetted gently to re-disperse the cells. The resultant cell dispersion was filtered through a 40 μm nylon mesh (cell strainer, Cat. #. 35-2340, Becton Dickinson Labware, Franklin Lakes, N.J., USA) to obtain a neuronal cell suspension by removing cell aggregates. The resultant neuronal cell suspension was diluted with the medium and seeded into poly-L or D-lysine coated 96 well polystyrene culture vessels (Falcon Cat. #. 35-3075, Becton Dickinson Labware, Franklin Lakes, N.J., USA, coated with poly-L-lysine by a following method or BIOCOAT™πcell environments Poly-D-lysine cell ware 96-well plate, Cat. #. 35-6461, Becton Dickinson Labware, Franklin Lakes, N.J., USA) at 100 μL/well so that the initial cell density was 5×10^5 cells/cm^2. The poly-L-lysine coating was carried out as follows. Using 0.15 M Borate buffer (SIGMA P2636, St. Louis, Mo., USA) solution was aseptically prepared. The resultant solution was added to 96 well polystyrene culture vessels at […] and incubated at room temperature for 1 hour or longer or at 4° C. overnight or longer. Then the coated 96 well polystyrene culture vessels were washed with sterilized water 4 times or more, dried or rinsed with sterilized PBS or the medium and used for seeding the cells. After culturing the seeded cells were incubated at 37° C. in an incubator under a 5% CO2-95% air for 1 day, the whole medium was replaced with fresh Neurobasal/B27/2-ME medium, and the incubation was continued for 3 days.
At day 4 of culturing, drugs were added as follows. The whole medium was withdrawn and Neurobasal medium containing 2% B-27 but no 2-ME (Neurobasal/B27) was added to the well at 180 μL/well. A dimethylsulfoxide (hereinafter abbreviated as DMSO) solution of a test compound was diluted with Neurobasal/B27 to a 10 times concentration of the final concentration. The resultant diluted solution was added to the well at 20 μL/well and mixed well. The final DMSO concentration was to be 1% or less. Only DMSO was added to the control group.
After culturing 3 days after adding the compound, the whole medium was recovered. The medium thus obtained was used as ELISA samples. For Aβx-42 measurement, no dilution was made but for Aβx-40 measurement, samples were diluted 5 folds with the diluent attached to the ELISA kit to be subjected to the ELISA tests. […]

SMILES: COc1cc(/C=C2\O[C@@H](C)[C@H]3COC[C@@H](c4cc(F)c(F)c(F)c4)N3C2=O)ccc1-n1cnc(C)c1 [Example 2, (Z)-(1S,6R,9aR)-3-[3-methoxy-4-(4-methylimidazol-1-yl)benzylidene]-1-methyl-6-(3,4,5-trifluorophenyl)tetrahydro-[1,4]oxazino[3,4-c][1,4]oxazin-4-one]
- Aβ42 production reducing activity: 52 % of CTRL

SMILES: COc1cc(/C=C2\OC(C)(C)[C@H]3CC[C@@H](c4ccc(Cl)cc4)N3C2=O)ccc1-n1cnc(C)c1 [Example 8, (Z)-(6S,8aR)-6-(4-chlorophenyl)-3-[3-methoxy-4-(4-methylimidazol-1-yl)benzylidene]-1,1-dimethyltetrahydropyrrolo[2,1-c][1,4]oxazin-4-one]
- Aβ42 production reducing activity: 74 % of CTRL

SMILES: COc1cc(/C=C2\O[C@@H](C)[C@H]3CC[C@@H](c4ccc(Cl)cc4)N3C2=O)ccc1-n1cnc(C)c1 [Example 9, (Z)-(1S,6S,8aR)-6-(4-chlorophenyl)-3-[3-methoxy-4-(4-methylimidazol-1-yl)benzylidene]-1-methyltetrahydropyrrolo[2,1-c][1,4]oxazin-4-one]
- Aβ42 production reducing activity: 95 % of CTRL

SMILES: COc1cc(/C=C2\OC(C)(C)[C@H]3CC[C@@H](c4cc(F)c(F)c(F)c4)N3C2=O)ccc1-n1cnc(C)c1 [Example 11, (Z)-(6S,8aR)-3-[3-methoxy-4-(4-methylimidazol-1-yl)benzylidene]-1,1-dimethyl-6-(3,4,5-trifluorophenyl)tetrahydropyrrolo[2,1-c][1,4]oxazine-4 one]
- Aβ42 production reducing activity: 67 % of CTRL

SMILES: COc1cc(/C=C2\O[C@@H](C)[C@H]3CC[C@@H](c4cc(F)c(F)c(F)c4)N3C2=O)ccc1-n1cnc(C)c1 [Example 12, (Z)-(1S,6S,8aR)-3-[3-Methoxy-4-(4-methylimidazol-1-yl)benzylidene]-1-methyl-6-(3,4,5-trifluorophenyl)tetrahydropyrrolo[2,1-c][1,4]oxazin-4-one]
- Aβ42 production reducing activity: 91 % of CTRL

SMILES: COc1cc(/C=C2\O[C@@H](C)[C@H]3CCC[C@@H](c4cc(F)c(F)c(F)c4)N3C2=O)ccc1-n1cnc(C)c1 [Example 17, (Z)-(1S,6S,9aR)-3-[3-methoxy-4-(4-methylimidazol-1-yl)benzylidene]-1-methyl-6-(3,4,5-trifluorophenyl)hexahydropyrido[2,1-c][1,4]oxazin-4-one]
- Aβ42 production reducing activity: 53 % of CTRL

SMILES: COc1cc(/C=C2\OC(C)(C)[C@H]3COC[C@@H](c4cc(F)c(F)c(F)c4)N3C2=O)ccc1-n1cnc(C)c1 [Example 19]
- Aβ42 production reducing activity: 42 % of CTRL
